Experimental data taken from patent publication US9463252B2, “Auristatin drug linker conjugates” (priority 2008, dated 2016).
Converted amounts (≈) assume the structure as drawn. Non-standard residues stand in square brackets, D forms with d. Residues, ends and D or L forms follow the SMILES beside them. *: point of attachment. Dolaproine = CO[C@@H]([C@@H]1CCCN1)[C@@H](C)C(=O)O; Hexanoyl(6-maleimido) = O=C1C=CC(=O)N1CCCCCC(=O)*; Dil = CC[C@H](C)[C@H](NC)[C@@H](CC(=O)O)OC; NMeV = CN[C@H](C(=O)O)C(C)C

How the values were obtained:
[1] = system: U251; experiment: Cytotoxicity of Auristatin-Peptide-h1F6 conjugates, resazurin assay; format: cell-based; conditions: Table 4, ~4 drugs/Ab
Description: (§1) The conjugates contain approximately 4 drugs per antibody.

[2] = system: L428; experiment: as above; format: cell-based
Description: as §1

[3] = system: Caki-1; experiment: as above; format: cell-based
Description: as §1

[4] = system: 786-O (renal cell) xenografts; conditions: mouse, ip
Procedure: The efficacy of AF-Dipeptide-h1F6 conjugates were evaluated in 786-O (renal cell) xenografts. AF-Dipeptide-h1F6 conjugates with an average of 4 drug moieties per antibody were used. 786-O cells were implanted subcutaneously into immunodeficient mice (5×10^6 cells per mouse). Tumor volumes are calculated using the formula (0.5×L×W^2) where L and W are the longer and shorter of two bidirectional measurements.
In a second study, the efficacies of additional Auristatin-Dipeptide-h1F6 conjugates were evaluated in 786-O (renal cell) xenografts. Auristatin-Dipeptide-h1F6 conjugates with an average of 4 drug moieties per antibody were used. 786-O cells were implanted subcutaneously into immunodeficient mice (5×10^6 cells per mouse). Tumor volumes are calculated using the formula (0.5×L×W^2), where L and W are the longer and shorter of two bidirectional measurements.

[5] = system: CD70+ positive cell lines; conditions: h1F6 conjugates, ~4 drugs/Ab
Procedure: Cytotoxicity assays are usually carried out for 96 hours after addition of test compounds. Fifty μl of resazurin dye may be added to each well during the last 4 to 6 hours of the incubation to assess viable cells at the end of culture. Dye reduction can be determined by fluorescence spectrometry using the excitation and emission wavelengths of 535 nm and 590 nm, respectively. For analysis, the extent of resazurin reduction by the treated cells can be compared to that of the untreated control cells.

[6] = system: HCT-116 (CD70−); experiment: Cytotoxicity of Auristatin-Peptide-h1F6 conjugates, CD70- control cell line; format: cell-based
Description: as §1

[7] = system: 786-O; experiment: Cytotoxicity of Auristatin-Peptide-h1F6 conjugates, resazurin assay; format: cell-based, human
Description: as §1

[8] = system: Caki-2; experiment: as above; format: cell-based
Procedure: as §1
Following the procedure described as Examples 57 and 58, Auristatin-Peptide-h1F6 conjugates were evaluated on CD70^+ cell, such as 786-O, Caki-1, Caki-2, and L428. Conjugates contain approximately 4 drugs per antibody.

[9] = system: L540cy Hodgkin's lymphoma subcutaneous model; experiment: In vivo efficacy of cAC10 conjugates in lymphoma xenograft model; design: species or system mouse; conditions: FIG. 17, q4d×3 at 1 mg/kg, SCID mice
Procedure: The efficacy of selected Auristatin-Dipeptide-cAC10 conjugates having Stretcher units with aryl or alkyl maleimides were evaluated in L540cy Hodgkin's lymphoma subcutaneous model. Auristatin-Dipeptide-cAC10 conjugates with average of 4 drug moieties per antibody were used. L540cy cells were implanted subcutaneously into immunodeficient SCID mice (5×10^6 cells per mouse). […] Treatment was initiated when average size of tumors reached 100 mm^3. The treatment schedule was q4d×3 at 1 mg/kg.

[10] = system: DoHH-2 follicular B-cell lymphoma subcutaneous model; experiment: In vivo efficacy of hBU12 conjugates in lymphoma xenograft model; design: species or system mouse; conditions: FIG. 16, q4d×4 at 3 mg/kg, SCID mice
Procedure: The efficacies of Auristatin-Dipeptide hBU12 conjugates with the aryl and alkyl-maleimide Stretcher units were evaluated in a DoHH-2 follicular B-cell lymphoma subcutaneous model. Auristatin-Dipeptide-hBU12 conjugates with average of 4 drug moieties per antibody were used. DoHH-2 cells were implanted subcutaneously into immunodeficient SCID mice (5×10^6 cells per mouse). […] Treatment was initiated when average size of tumors reached 100 mm^3; the treatment schedule was q4d×4 at 3 mg/kg.

[11] = system: Ramos; experiment: Cytotoxicity of Auristatin-Peptide-hBU12 conjugates on CD19+ cells; format: cell-based; conditions: Table 11, ~4 drugs per antibody
Procedure: (§2) Following the procedure described as Examples 57 and 58, the activities of Auristatin-Peptide-cAC10 conjugates were evaluated on CD30^+ cells, such as Karpas 299, L428, and L540cy. The activities of Auristatin-Peptide-hBU12 conjugates were evaluated on CD19^+ cells such as Ramos, SUDHL-4, and ARH-77. The activities of Auristatin-Peptide-anti-LIV-1 conjugates were evaluated on LIV-1 positive cell lines MCF-7 and SKOV-3. The activities of Auristatin-Peptide-BR96 conjugates were evaluated on Le^y positive cells H3396, RCA, and L2987. All conjugates contain approximately 4 drugs per antibody.

[12] = system: SUDHL-4; experiment: as above; format: cell-based; conditions: Table 11, ~4 drugs per antibody
Procedure: as §2

[13] = system: ARH-77; experiment: as above; format: cell-based; conditions: Table 11, ~4 drugs per antibody
Procedure: as §2

[14] = system: MCF-7; experiment: Cytotoxicity of Auristatin-Peptide-anti-LIV-1 conjugates on LIV-1 positive cells; format: cell-based; conditions: Table 11, ~4 drugs per antibody
Procedure: as §2

[15] = system: SKOV-3; experiment: as above; format: cell-based; conditions: Table 11, ~4 drugs per antibody
Procedure: as §2

[16] = system: Karpas 299; experiment: Cytotoxicity of Auristatin-Peptide-cAC10 conjugates on CD30+ cells; format: cell-based, human; conditions: Table 11, ~4 drugs per antibody
Procedure: (§3) Following the procedure described in Example 57, Auristatin-Dipeptide-cAC10 antibody conjugates were evaluated on CD30+ positive cell lines, Karpas 299, L428 and L540cy. In addition, a control conjugate, cAC10-vc-PABC-MMAF, was used. […] The conjugates contain approximately 4 drugs per antibody.
as §2

[17] = system: L540cy; experiment: as above; format: cell-based, human; conditions: Table 11, ~4 drugs per antibody
Procedure: as §3, §2

[18] = system: RCA; experiment: Cytotoxicity of Auristatin-Peptide-BR96 conjugates on Le^y positive cells; format: cell-based; conditions: Table 11, ~4 drugs per antibody
Procedure: as §2

[19] = system: H3396; experiment: as above; format: cell-based; conditions: Table 11, ~4 drugs per antibody
Procedure: as §2

[20] = system: L2987; experiment: as above; format: cell-based; conditions: Table 11, ~4 drugs per antibody
Procedure: as §2

[21] = system: L428; experiment: Cytotoxicity of Auristatin-Peptide-cAC10 conjugates on CD30+ cells; format: cell-based; conditions: Table 11, ~4 drugs per antibody
Procedure: as §3, §2

[22] = Table 4, h1F6 conjugates, ~4 drugs/Ab
[23] = Table 5, h1F6 conjugates, ~4 drugs/Ab
[24] = Table 10, h1F6-Drug(4) conjugates, aryl or alkyl maleimides

Molecule | IC50 Ramos [11] [µg/mL] | IC50 SUDHL-4 [12] | IC50 ARH-77 [13] [µg/mL] | IC50 MCF-7 [14] [µg/mL] | IC50 SKOV-3 [15] [µg/mL] | IC50 Karpas 299 [16] [µg/mL] | IC50 L540cy [17] [µg/mL] | IC50 RCA [18] [µg/mL] | IC50 H3396 [19] [µg/mL] | IC50 L2987 [20] [µg/mL] | IC50 L428 [21] [µg/mL] | other results
AF-Proline-(D)Lysine-diaminoethane-propionyl maleimide [AF-Pro-(D)Lys] | – | – | – | – | – | – | – | – | – | – | – | IC50 U251 [1]: 5.012 µg/mL; IC50 L428 [2, 22]: >10,000 ng/mL; IC50 Caki-1 [3, 22]: >10,000 ng/mL; in vivo efficacy, tumor volume (in words) [4]: inactive; in vitro activity on CD70+ cells (in words) [5]: largely inactive; IC50 HCT-116 (CD70−) ([6]; Table 4, ~4 drugs/Ab): >1 µg/mL
AM-Asparagine-(D)Lysine-diaminoethane-propionyl maleimide [AM-Asn-(D)Lys] | 0.001 | >10,000 ng/mL | 0.049 | 0.024 | 7.6 | 0.011 | 0.031 | 8.362 | 0.037 | 0.506 | 0.0006 | IC50 786-O [7, 23]: 0.02 µg/mL; IC50 786-O [7, 24]: 0.018 µg/mL; IC50 Caki-2 [8, 23]: 0.047 µg/mL; IC50 Caki-2 [8, 24]: 0.026 µg/mL; IC50 L428 [2, 23]: 26 ng/mL; IC50 L428 [2, 24]: 29 ng/mL; IC50 Caki-1 [3, 23]: 20 ng/mL; IC50 Caki-1 [3, 24]: 16 ng/mL; in vivo efficacy, tumor volume (in words) [9]: more potent than corresponding AW-Met-(D)Lys conjugates; in vivo efficacy, tumor volume (in words) [10]: more potent than corresponding AW-Met-(D)Lys conjugates; IC50 HCT-116 (CD70−) ([6]; Table 5, ~4 drugs/Ab): >1 µg/mL
CC[C@H](C)[C@@H]([C@@H](CC(=O)N1CCC[C@H]1[C@H](OC)[C@@H](C)C(=O)N[C@@H](Cc1ccccc1)C(=O)O)OC)N(C)C(=O)[C@@H](NC(=O)[C@H](C(C)C)N(C)C(=O)CCCCCN1C(=O)C=CC1=O)C(C)C [MC-MMAP, Maleimidocaproyl-monomethylauristatin F, reference compound] ({Hexanoyl(6-maleimido)}-[NMeV]V[Dil][Dolaproine]F-OH) | 0.007 (≈ 0.00757 µM) | ~10,000 ng/mL | 0.255 (≈ 0.276 µM) | 0.003 (≈ 0.00324 µM) | 2.45 (≈ 2.65 µM) | 0.003 (≈ 0.00324 µM) | 0.007 (≈ 0.00757 µM) | 7.4 (≈ 8 µM) | 0.042 (≈ 0.0454 µM) | 0.626 (≈ 0.677 µM) | 0.001 (≈ 0.00108 µM) | –
